One test has as its system cGMP. The test is described as follows: Parotid saliva cGMP before and after oral theophylline (Example 2). Type of test: in vivo, human. The following applies: mean ± SEM. As to the method:
Parotid saliva was collected from each patient by application of a Lashley cup over Stensen's duct with lingual stimulation by placement of concentrated lemon juice. Saliva was collected in plastic tubes and stored at −20° C. until assayed. cAMP and cGMP were measured in saliva by a sensitive 96 plate spectrophotometric assay (R&D Systems, Minneapolis, Minn.).
All patients were placed in a fixed design open label clinical trial with treatment with oral theophylline. Treatment consisted of fixed treatment periods of two-eight months with sequential doses of the drug at 200 mg, 400 mg and 600 mg. At termination of each of these intervals, patients returned to study site for reevaluation. At the end of each interval subjective responses to treatment were measured with a modification of the 0-100 scale previously used (vs). Subjective responses to treatment were graded on a sliding scale from −100-0-+100 with patients recording improvement (+0-+100), no improvement (0) or worsening (0-−100) of their overall smell function. If overall smell function improved ≥5% they were considered to improve clinically (1). If smell function improved <5% they were considered not to improve (1). At the end of each interval subjective measurements of smell function, measurements of DT, RT, ME and H and measurements of parotid saliva for levels of cAMP and cGMP were obtained. In addition, blood plasma was obtained by venipuncture, placed in ice into zinc free tubes which contained 100 mg zinc free heparin, centrifuged at 3000 rpm for 10-20 min, the plasma transferred to plastic PCR tubes and stored at −20° C. until assayed. Theophylline was assayed by a fluorescence polarization assay (Abbott, Chicago, Ill.), as previously described.
Data for the cyclic nucleotides from these 31 patients was not analyzed until the entire study of the 312 patients in Example 1 was assembled and analyzed in its entirety. After completion of these analyses, all data for parotid saliva cAMP and cGMP from all patients in whom salivary cAMP and cGMP were obtained were assembled. Levels of salivary cyclic nucleotides varied widely. Initially, without external criteria, there was no way to understand these disparate data. […] In a similar manner, measurements of each patient's plasma theophylline level at each dosage of theophylline (at 200 mg, 400 mg, 600 mg of theophylline) were categorized. The two patient groups were also analyzed post hoc with respect to type of smell loss and etiology of smell loss.

The subject of test [1] is patients with hyposmia and hypogeusia. The test is described as follows: Subjective changes in smell and taste function by questionnaire, scale 0 to 100 (Example 8). Type of test: in vivo, human. Particulars: oral 200 to 800 mg/d; of 10 patients.
Procedure: Subjective changes in smell and taste function under each study condition were measured by questionnaire before measurements of smell or taste function. Responses were graded on a scale from 0 to 100, with 0 reflecting no subjective response in overall sensory function; 100, return to normal sensory function; and values between 0 and 100 intermediate responses. Overall sensory function was defined as the ability to smell all odors and identify all tastants, although response intensity varied.
Values for the oral trial were taken from the last measurements made before discontinuation of oral drug treatment and before initiation of the intranasal trial. This period varied from 2 to 12 months after oral treatment initiation and reflected the maximal improvement in sensory function each patient experienced.

Turning to `Cn1c(=O)c2[nH]cnc2n(C)c1=O` [theophylline], the “parotid saliva cGMP” value was determined as 0.08 ± 0.016 pmol/mL in the test on cGMP (patients with improved smell function, oral 200 mg (15 patients)); 0.07 ± 0.018 pmol/mL in the test with cGMP (patients with unimproved smell function, oral 200 mg (9 patients)); 0.05 ± 0.014 pmol/mL with cGMP (patients with unimproved smell function, oral 400 mg (4 patients)); 0.04 ± 0.07 pmol/mL with cGMP (patients with unimproved smell function, oral 600 mg (5 patients)). The “patients reporting no improvement” value in test [1] came out at 4 patients.

Values taken from patent US20190231785A1, “PHOSPHODIESTERASE INHIBITOR TREATMENT” (Cyrano Therapeutics, Inc., priority 2012, published 2019).
